From US9446034B2, “Pyrazolylaminopyridines as inhibitors of FAK” (GlaxoSmithKline LLC, priority 2008, dated 2016) come the findings set out here.

SMILES strings stand for the structures.

One test has as its target T1, GST-tagged FAK (Homo sapiens, UniProt Q05397).
T1 construct: purchased Invitrogen PV3832
Kind of test: Biochemical assay for FAK activity, Assay 1: GST-FAK, peptide substrate phosphorylation with 33P-ATP. Particulars: 5 μM ATP, 30 min pre-incubation, read-out: Assay 1 FAK TRF PXC50 (converted). As to the method: (§1) Biochemical Assay for FAK Activity
To measure inhibitors of FAK, compounds were first prepared as a 10× stock in 10% DMSO. […] A 6-nM GST-FAK solution was prepared in 1.1× reaction buffer containing 44 mM HEPES, pH=7.2, 11 mM MgCl2, 2.2 mM MnCl2, 1.1 mM DTT and 0.011% Tween-20. Then, 20 μL of the 6 nM GST-FAK solution were pre-incubated with the compounds for 30 min at room temperature. […] The reaction was allowed to proceed for 90 min before being quenched with 40 μL of 1% H3PO4. A portion of the reaction mixture (60 μL) was transferred to a phospho-cellulose filter plate (Millipore; www.millipore.com, MAPHNOB50) and incubated for 20 minutes. The plate was filtrated, washed three times using 150 μL of 0.5% H3PO4 and dried at 50° C. for 30 min. After the addition of 60 μL Microscint-20 to the plate, radioactivity was measured using a TopCount (PerkinElmer; www.PerkinElmer.com).

The target of test [1] is T2, Full length Human FAK (FLAG-6×His-TEV-huFAK) (Homo sapiens, UniProt Q05397).
T2 construct: Full length Human FAK was expressed using baculovirus in Sf9 cells; made in house; host or cells: baculovirus in Sf9 cells
T2 sequence (Q05397 whole entry): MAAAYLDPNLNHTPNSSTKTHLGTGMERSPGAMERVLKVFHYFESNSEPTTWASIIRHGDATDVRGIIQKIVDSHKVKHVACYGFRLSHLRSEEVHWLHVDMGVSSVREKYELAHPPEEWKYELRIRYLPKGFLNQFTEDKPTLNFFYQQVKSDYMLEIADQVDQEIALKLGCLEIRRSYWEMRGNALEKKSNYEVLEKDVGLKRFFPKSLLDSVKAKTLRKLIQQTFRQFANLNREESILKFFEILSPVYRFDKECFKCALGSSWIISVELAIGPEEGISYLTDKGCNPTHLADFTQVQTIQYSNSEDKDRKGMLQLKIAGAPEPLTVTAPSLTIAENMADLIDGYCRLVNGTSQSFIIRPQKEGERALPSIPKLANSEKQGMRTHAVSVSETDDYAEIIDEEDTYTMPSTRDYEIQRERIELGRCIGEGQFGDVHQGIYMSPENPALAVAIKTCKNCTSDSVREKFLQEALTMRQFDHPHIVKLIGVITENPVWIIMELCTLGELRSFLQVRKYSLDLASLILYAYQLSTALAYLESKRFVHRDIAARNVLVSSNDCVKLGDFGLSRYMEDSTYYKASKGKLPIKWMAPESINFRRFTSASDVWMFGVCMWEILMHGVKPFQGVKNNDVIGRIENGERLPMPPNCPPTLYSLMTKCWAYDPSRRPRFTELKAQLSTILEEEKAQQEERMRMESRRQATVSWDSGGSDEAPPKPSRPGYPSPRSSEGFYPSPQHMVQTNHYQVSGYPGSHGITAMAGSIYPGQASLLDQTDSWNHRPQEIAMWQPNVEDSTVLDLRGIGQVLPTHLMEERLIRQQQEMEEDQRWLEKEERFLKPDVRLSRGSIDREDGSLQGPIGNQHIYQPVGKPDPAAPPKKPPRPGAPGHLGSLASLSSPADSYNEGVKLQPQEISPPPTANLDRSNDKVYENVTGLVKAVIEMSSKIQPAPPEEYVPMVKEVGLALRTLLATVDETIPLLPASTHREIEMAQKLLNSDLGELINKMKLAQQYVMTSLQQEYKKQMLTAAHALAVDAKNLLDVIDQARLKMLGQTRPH
Kind of test: Biochemical assay for FAK activity, Assay 2: Flag-His-TEV-FAK1, LANCE Ultra ULight peptide phosphorylation. Particulars: Flag-His-TEV-FAK1, 10 μM ATP, 30 min pre-incubation; read-out: Assay 2 FAK H 31284A TRF PXC50 (converted). As to the method: as §1
Assay 2: Flag-His-TEV-FAK1 was prepared in-house. Full length Human FAK was expressed using baculovirus in Sf9 cells with N-terminal FLAG-6×His tags followed by a TEV cleavage site (FLAG-6×His-TEV-huFAK). […] To measure inhibitors of FAK, compounds were first prepared as a 100× stock in 100% DMSO. A small portion of each compound solution (50 nL) was added to a black 384-well low-volume microtiter plate (Greiner 784076). A 1.2 nM Flag-His-TEV-FAK1 solution was prepared in 1× reaction buffer containing 40 mM Tris/Tris-HCL, 10 mM MgCl2, 1 mM CHAPS, at a pH of 7.5, with 1 mM DTT added. 2.5 ul of the 1.2 nM Flag-FAK solution was added to the plates and pre-incubated with the compounds for 30 min at room temperature. […] After incubating for 120 minutes at room temperature, the reaction is quenched by adding 5 uL of 20 mM EDTA and 5nMEu-Anti-pTyr antibody in 1× LANCE detection buffer. After a 30 minute incubation at room temperature, the plate is read on a Perkin Elmer Viewlux with a 320-340 nm excitation filter and measuring emission at 615 nm and 665 nm. The ratio of 665 nm/615 nm is used for data normalization.
In general terms: TR-FRET usually uses a lanthanide donor and a delayed reading to cut background.

T1 sequence (Q05397 whole entry): as above

On to `CCNC(=O)c1ccccc1Nc1cc(Nc2ccnn2CC)ncc1Cl` [Example 44, 2-({5-Chloro-2-[(1-ethyl-1H-pyrazol-5-yl)amino]-4-pyridinyl}amino)-N-ethylbenzamide], for which the IC50 at GST-tagged FAK was 6.31 nM; in test [1], 63.1 nM.

For `CCn1nccc1Nc1cc(Nc2cc(F)c(F)cc2C(=O)NC)c(Cl)cn1` [Example 10, 2-({5-Chloro-2-[(1-ethyl-1H-pyrazol-5-yl)amino]-4-pyridinyl}amino)-4,5-difluoro-N-methylbenzamide], the IC50 was 0.794 nM at GST-tagged FAK and 10 nM in test [1].
